Test results from patent US20230312587A1, “PTERIDINONE COMPOUNDS AND USES THEREOF” (Vertex Pharmaceutical Incorporated, priority 2018, published 2023).
Where two headings read alike, the source gives them in different places.

Columns and labels:
[1] = system: β-catenin-TCF-mediated reporter transcription activity in Colo 205 cells; assay: Colo 205 reporter assay (TCF/LEF luciferase); format: cell-based; conditions: Colo 205 TCF/LEF luciferase reporter, five hours after addition of compound, read-out: TCF reporter Colo205 IC50
Method in brief: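 Luciferase signal from a TCF/LEF-driven reporter, stably integrated in Colo 205 colon cancer cells, was measured 5 h after compound addition.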

Plk1 = Plk1 (Homo sapiens (Human), UniProt P53350); assay: PLK1 inhibition assay (radioactive-phosphate incorporation); format: biochemical; conditions: Ki(app), read-out: PLK1 - 33P.ENZ - CB 10 Ki
Plk1, sequence (P53350 whole entry, species assumed): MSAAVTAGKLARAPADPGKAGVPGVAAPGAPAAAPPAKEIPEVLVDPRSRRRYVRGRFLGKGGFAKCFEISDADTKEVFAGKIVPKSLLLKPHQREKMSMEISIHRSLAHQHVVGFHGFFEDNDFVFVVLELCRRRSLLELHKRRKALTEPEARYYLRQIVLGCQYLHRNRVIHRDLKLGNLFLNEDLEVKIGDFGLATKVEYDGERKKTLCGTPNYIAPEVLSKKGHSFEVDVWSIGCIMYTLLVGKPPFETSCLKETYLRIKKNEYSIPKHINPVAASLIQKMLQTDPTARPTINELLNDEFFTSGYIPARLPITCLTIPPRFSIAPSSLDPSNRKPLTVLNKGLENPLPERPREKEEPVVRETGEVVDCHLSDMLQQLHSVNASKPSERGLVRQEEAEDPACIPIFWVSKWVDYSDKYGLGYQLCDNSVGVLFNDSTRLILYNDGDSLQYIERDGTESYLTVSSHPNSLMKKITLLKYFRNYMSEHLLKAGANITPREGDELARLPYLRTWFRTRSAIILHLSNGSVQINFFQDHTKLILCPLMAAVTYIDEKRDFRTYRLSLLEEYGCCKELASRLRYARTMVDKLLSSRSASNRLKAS
Description: Compounds were screened for their ability to inhibit Plk1 using a radioactive-phosphate incorporation assay. Assays were carried out in a mixture of 25 mM HEPES (pH 7.5), 10 mM MgCl2, 25 mM NaCl, and 2 mM DTT. Final substrate concentrations were 20 μM [γ-33P]ATP (35mCi 33P ATP/mmol ATP, Perkin Elmer/Sigma Chemicals) and 9 uM Sam68 protein. Assays were carried out at room temperature in the presence of 15 nM Plk1. An assay stock buffer solution was prepared containing all of the reagents listed above, with the exception of ATP and the test compound of interest. 0.75 μL of DMSO stock containing serial dilutions of the test compound (typically starting from a final concentration of 10 μM with 2-fold serial dilutions—final DMSO concentration 1.5%) was placed in a 384 well plate followed by addition of 25 μL [γ-33P]ATP (final concentration 20 μM). The reaction was initiated by addition of 25 μL of the assay stock buffer solution.
The reaction was stopped after 45 minutes by the addition of 25 μL 30% trichloroacetic acid (TCA) containing 10 mM cold ATP. The entire quenched reaction was transferred to a 384-well glass fiber filter plate (Millipore, Cat no. MZFBNOW50). The plate was washed with 3×5% TCA. After drying, 40 μL of Ultima Gold liquid scintillation cocktail (Perkin Elmer) was added to the well prior to scintillation counting in a PerkinElmer TopCount.
After removing mean background values for all of the data points, Ki(app) data were calculated from non-linear regression analysis of the initial rate data using the Prism software package (GraphPad Prism, GraphPad Software, San Diego California, USA).

HepG2 XBP1(u)-Luc cells = assay: HepG2 XBP1 reporter assay; format: cell-based; conditions: Homo sapiens, 6 h
Description: HepG2 hepatoma cells were transduced with a retrovirus encoding the cDNA for unspliced (u) XBP1, which contains a non-processed intron, fused to the cDNA for firefly luciferase. Upon induction of ER stress, the non-processed intron of XBP1(u) is spliced out by active IRE1alpha endonuclease. The resulting spliced (s) XBP1 is now in frame with luciferase which causes the production of active luciferase protein, resulting in bioluminescence
HepG2 XBP1(u)-Luc cells were plated […] Cultured cells with a stably transfected reporter construct were plated at approximately 30,000 cells per well into 96 well multi-well plates for twenty four hours. The testing compounds were then added to the wells in 3-fold serial dilutions using a twenty seven micromolar top concentration. A series of control wells for each cell type received only compound solvent. Six hours after the addition of compound, reporter activity for luciferase was assayed, by addition of the SteadyGlo luminescence reagent (Promega). The reporter luminescence activity was measured using Pherastar plate reader (BMG Labtech). Readings was normalized to DMSO only treated cells, and normalized activities were then used in the IC50 calculations. The HepG2 XBP1 reporter assay data are summarized in Table 47: A<0.6 μM; 0.6 μM≤B<2.0 μM; 2.0 μM≤C<10.0 μM; D≥10.0 μM.

[2] = molecular target: HEK293 membranes over-expressing WFS-1 (Homo sapiens (Human), UniProt O76024); assay: Radioligand displacement assay (tritiated Compound 136 probe); format: binding; conditions: displacement of tritiated Compound 136
HEK293 membranes over-expressing WFS-1, sequence (O76024 whole entry): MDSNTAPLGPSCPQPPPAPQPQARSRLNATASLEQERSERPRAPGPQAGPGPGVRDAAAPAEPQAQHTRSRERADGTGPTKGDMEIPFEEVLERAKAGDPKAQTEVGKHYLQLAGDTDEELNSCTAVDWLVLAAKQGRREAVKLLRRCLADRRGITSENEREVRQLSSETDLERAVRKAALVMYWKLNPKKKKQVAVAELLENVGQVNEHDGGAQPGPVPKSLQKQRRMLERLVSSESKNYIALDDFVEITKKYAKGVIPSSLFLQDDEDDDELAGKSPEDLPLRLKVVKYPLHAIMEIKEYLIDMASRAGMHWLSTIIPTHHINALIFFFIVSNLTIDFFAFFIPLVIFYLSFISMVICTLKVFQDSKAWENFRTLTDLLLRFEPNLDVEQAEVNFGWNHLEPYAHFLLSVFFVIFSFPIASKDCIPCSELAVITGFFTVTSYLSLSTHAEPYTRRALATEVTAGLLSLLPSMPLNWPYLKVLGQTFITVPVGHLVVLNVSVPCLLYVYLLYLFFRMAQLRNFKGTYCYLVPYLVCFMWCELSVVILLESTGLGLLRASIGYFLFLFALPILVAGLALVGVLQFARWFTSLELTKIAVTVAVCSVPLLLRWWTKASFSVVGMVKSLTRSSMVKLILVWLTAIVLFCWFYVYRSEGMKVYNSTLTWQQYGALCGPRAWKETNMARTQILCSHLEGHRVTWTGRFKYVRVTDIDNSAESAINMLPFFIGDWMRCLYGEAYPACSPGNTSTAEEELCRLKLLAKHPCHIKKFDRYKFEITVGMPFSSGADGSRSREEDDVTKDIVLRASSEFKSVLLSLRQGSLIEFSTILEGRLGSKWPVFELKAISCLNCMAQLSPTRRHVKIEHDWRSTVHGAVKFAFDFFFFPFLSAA
Method in brief: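 WFS-1-overexpressing HEK293 membranes were preincubated 10 min with compound, then tritiated probe was added for 90 min at room temperature. Bound probe was collected by filtration on PEI-pretreated GF/B filters, washed and scintillation-counted. IC50 came from a 3-parameter fit of bound probe vs compound concentration.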

Colo-205 cells = assay: Calcium flux assay (FLIPR Calcium 5); format: cell-based; conditions: Homo sapiens, COLO 205, 0.6 h, FLIPR Calcium 5, measured over 36 minutes
Description: Compounds described herein induced ER stress by causing intracellular calcium flux. Calcium flux was measured in Colo-205 cells using the FLTPR® Calcium 5 Assay Kit according to manufacter's protocol (Molecular Devices, Cat. #R8186) on a FLIPR3 system (Molecular Devices). Calcium flux is measured over 36 minutes. The Colo-205 calcium flux assay data are summarized in Table 47: A<0.6 μM; 0.6 μM≤B<2.0 μM; 2.0 μM≤C<10.0 μM; D≥10.0 μM.

Compound | IC50 ([1]; Homo sapiens, COLO 205, 5 h) | Ki (Plk1) | further results
CC[C@]1(C)C(=O)N(C)c2cnc(NCc3cnn(Cc4ccc(F)cc4)c3)nc2N1C [Compound 3, (7R)-7-ethyl-2-(((1-(4-fluorobenzyl)-1H-pyrazol-4-yl)methyl)amino)-5,7,8-trimethyl-7,8-dihydropteridin-6(5H)-one] | < 300 nM | > 4000 nM | –
Cc1nc(N[C@H]2C[C@H](Oc3cc(F)c(F)cc3F)C2)nc2c1NC(=O)[C@H](C)N2C [Compound 292, (7S)-4,7,8-trimethyl-2-((trans 3-(2,4,5-trifluorophenoxy)cyclobutyl)amino)-7,8-dihydropteridin-6(5H)-one] | < 300 nM | – | IC50 (HepG2 XBP1(u)-Luc cells): < 600 nM; IC50 [2]: < 60 nM; EC50 (Colo-205 cells): < 600 nM
CCN1c2nc(NCc3cnn(Cc4ccc(F)cc4)c3)ncc2N(C)C(=O)[C@@H]1C [Compound 22, (7S)-8-ethyl-2-(((1-(4-fluorobenzyl)-1H-pyrazol-4-yl)methyl)amino)-5,7-dimethyl-7,8-dihydropteridin-6(5H)-one] | < 300 nM | > 4000 nM | –
Cc1nc(NCc2cnn(CC3CCC3)c2)nc2c1NC(=O)[C@H](C)N2C [Compound 5, (7S)-2-(((1-(cyclobutylmethyl)-1H-pyrazol-4-yl)methyl)amino)-4,7,8-trimethyl-7,8-dihydropteridin-6(5H)-one] | 300 to 1000 nM | > 4000 nM | –
CC[C@@]1(C)C(=O)N(C)c2cnc(NCc3cnn(Cc4ccc(F)cc4)c3)nc2N1C [Compound 2, (7S)-7-ethyl-2-(((1-(4-fluorobenzyl)-1H-pyrazol-4-yl)methyl)amino)-5,7,8-trimethyl-7,8-dihydropteridin-6(5H)-one] | – | > 4000 nM | –
Cc1nc(NCc2cnn(Cc3ccc(F)cc3)c2)nc2c1NC(=O)C1(CC1)N2C [Compound 221, 2′-(((1-(4-fluorobenzyl)-1H-pyrazol-4-yl)methyl)amino)-4′,8′-dimethyl-5′,8′-dihydro-6′H-spiro[cyclopropane-1,7′-pteridin]-6′-one] | < 300 nM | > 4000 nM | –
Cc1noc(C)c1Cn1cc(CNc2nc(C)c3c(n2)N(C)[C@@H](C)C(=O)N3)cn1 [Compound 138, (7S)-2-(((1-((3,5-dimethylisoxazol-4-yl)methyl)-1H-pyrazol-4-yl)methyl)amino)-4,7,8-trimethyl-7,8-dihydropteridin-6(5H)-one] | < 300 nM | > 4000 nM | –
Cc1nc(NCc2cnn(C3Cc4ccccc4C3)c2)nc2c1NC(=O)[C@H](C)N2C [Compound 116, (7S)-2-(((1-(2,3-dihydro-1H-inden-2-yl)-1H-pyrazol-4-yl)methyl)amino)-4,7,8-trimethyl-7,8-dihydropteridin-6(5H)-one] | < 300 nM | > 4000 nM | –
Cc1nc(N[C@@H]2CC[C@@H](Oc3cc(F)c(F)c(F)c3)C2)nc2c1NC(=O)[C@H](C)N2C [Compound 267, (S)-4,7,8-trimethyl-2-(((1R,3R)-3-(3,4,5-trifluorophenoxy)cyclopentyl)amino)-7,8-dihydropteridin-6(5H)-one] | < 300 nM | > 4000 nM | –
CC[C@H]1C(=O)N(C)c2cnc(NCc3cnn(Cc4ccc(F)cc4)c3)nc2N1C(C)C [Compound 32, (7S)-7-ethyl-2-(((1-(4-fluorobenzyl)-1H-pyrazol-4-yl)methyl)amino)-8-isopropyl-5-methyl-7,8-dihydropteridin-6(5H)-one] | 300 to 1000 nM | > 4000 nM | –
Cc1nc(NCc2ccc(Oc3ccc(F)cc3)nc2)nc2c1NC(=O)[C@H](C)N2C [Compound 54, (7S)-2-(((6-(4-fluorophenoxy)pyridin-3-yl)methyl)amino)-4,7,8-trimethyl-7,8-dihydropteridin-6(5H)-one] | < 300 nM | > 4000 nM | –
CCN1C(=O)[C@H](CCO)N(CC)c2nc(NCc3cnn(Cc4cc(F)c(OC)c(F)c4)c3)ncc21 [Compound 48, (7S)-2-(((1-(3,5-difluoro-4-methoxybenzyl)-1H-pyrazol-4-yl)methyl)amino)-5,8-diethyl-7-(2-hydroxyethyl)-7,8-dihydropteridin-6(5H)-one] | < 300 nM | > 4000 nM | –
CCN1C(=O)[C@@](C)(CC)N(CC)c2nc(NCc3cnn(Cc4ccc(F)cc4)c3)ncc21 [Compound 234, (7R)-5,7,8-triethyl-2-(((1-(4-fluorobenzyl)-1H-pyrazol-4-yl)methyl)amino)-7-methyl-7,8-dihydropteridin-6(5H)-one] | – | > 4000 nM | IC50 [1]: 300 to 1000 nM

Second part, led by results:

IC50 ([1]; Homo sapiens, COLO 205, 5 h) | Ki (Plk1) | Compound | further results
300 to 1000 nM | > 4000 nM | CC[C@H]1C(=O)N(CC)c2cnc(NCc3cnn(Cc4ccc(F)cc4)c3)nc2N1C [Compound 19, (7S)-5,7-Diethyl-2-(((1-(4-fluorobenzyl)-1H-pyrazol-4-yl)methyl)amino)-8-methyl-7,8-dihydropteridin-6(5H)-one] | –
< 300 nM | > 4000 nM | CN1C(=O)C(C)(C)N(C)c2nc(NCc3cnn(Cc4ccc(F)cc4)c3)ncc21 [Compound 224, 2-(((1-(4-fluorobenzyl)-1H-pyrazol-4-yl)methyl)amino)-5,7,7,8-tetramethyl-7,8-dihydropteridin-6(5H)-one] | –
< 300 nM | > 4000 nM | Cc1nc(NCc2cnn(Cc3ccc(C(F)(F)F)o3)c2)nc2c1NC(=O)[C@H](C)N2C [Compound 192, (7S)-4,7,8-trimethyl-2-(((1-((5-(trifluoromethyl)furan-2-yl)methyl)-1H-pyrazol-4-yl)methyl)amino)-7,8-dihydropteridin-6(5H)-one] | –
< 300 nM | > 4000 nM | Cc1nc(NCc2cnn(CCC3CCCCC3)c2)nc2c1NC(=O)[C@H](C)N2C [Compound 113, (7S)-2-(((1-(2-cyclohexylethyl)-1H-pyrazol-4-yl)methyl)amino)-4,7,8-trimethyl-7,8-dihydropteridin-6(5H)-one] | –
< 300 nM | > 4000 nM | COc1c(F)cc(Cn2cc(CNc3ncc4c(n3)N(C)[C@@H](C)C(=O)N4)cn2)cc1F [Compound 44, (7S)-2-(((1-(3,5-difluoro-4-methoxybenzyl)-1H-pyrazol-4-yl)methyl)amino)-7,8-dimethyl-7,8-dihydropteridin-6(5H)-one] | –
< 300 nM | > 4000 nM | Cc1nc(NCc2cnn(Cc3cccc(C(F)(F)F)c3)c2)nc2c1NC(=O)[C@H](C)N2C [Compound 47, (7S)-4,7,8-trimethyl-2-(((1-(3-(trifluoromethyl)benzyl)-1H-pyrazol-4-yl)methyl)amino)-7,8-dihydropteridin-6(5H)-one] | –
< 300 nM | > 4000 nM | CCN1C(=O)[C@H](C)N(C(C)C)c2nc(NCc3cnn(Cc4cc(F)c(F)c(F)c4)c3)ncc21 [Compound 51, (7S)-5-ethyl-8-isopropyl-7-methyl-2-(((1-(3,4,5-trifluorobenzyl)-1H-pyrazol-4-yl)methyl)amino)-7,8-dihydropteridin-6(5H)-one] | –
< 300 nM | > 4000 nM | CC[C@H]1C(=O)N(C)c2cnc(NCc3cnn(Cc4cc(F)c(F)c(F)c4)c3)nc2N1C [Compound 15, (7S)-7-Ethyl-5,8-dimethyl-2-(((1-(3,4,5-trifluorobenzyl)-1H-pyrazol-4-yl)methyl)amino)-7,8-dihydropteridin-6(5H)-one] | –
